In BigSolDB 2.1:

[1] = in gamma-valerolactone, 283.15 K
[2] = in gamma-valerolactone, 293.15 K
[3] = in gamma-valerolactone, 303.15 K
[4] = in gamma-valerolactone, 313.15 K
[5] = in gamma-valerolactone, 323.15 K
[6] = in gamma-valerolactone, 333.15 K

C[C@H](CCC(=O)O)[C@H]1CC[C@H]2[C@@H]3[C@H](O)C[C@@H]4C[C@H](O)CC[C@]4(C)[C@H]3C[C@H](O)[C@]12C
solubility (mole fraction) (in 2-pentanone, 283.15 K): 0.00141 | solubility (mole fraction) (in 2-pentanone, 293.15 K): 0.00164 | solubility (mole fraction) (in 2-pentanone, 303.15 K): 0.00206 | solubility (mole fraction) (in 2-pentanone, 313.15 K): 0.00247 | solubility (mole fraction) (in 2-pentanone, 323.15 K): 0.00299 | solubility (mole fraction) (in 2-pentanone, 333.15 K): 0.00345 | solubility (mole fraction) (in cyclohexanone, 283.15 K): 0.00753 | solubility (mole fraction) (in cyclohexanone, 293.15 K): 0.00842 | solubility (mole fraction) (in cyclohexanone, 303.15 K): 0.00952 | solubility (mole fraction) (in cyclohexanone, 313.15 K): 0.0106 | solubility (mole fraction) (in cyclohexanone, 323.15 K): 0.012 | solubility (mole fraction) (in cyclohexanone, 333.15 K): 0.0137 | solubility (mole fraction) (in ethyl acetate, 283.15 K): 0.000154 | solubility (mole fraction) (in ethyl acetate, 293.15 K): 0.000242 | solubility (mole fraction) (in ethyl acetate, 303.15 K): 0.000392 | solubility (mole fraction) (in ethyl acetate, 313.15 K): 0.000536 | solubility (mole fraction) (in ethyl acetate, 323.15 K): 0.000713 | solubility (mole fraction) (in ethyl acetate, 333.15 K): 0.000942 | solubility (mole fraction) (in furfural, 283.15 K): 3.55e-05 | solubility (mole fraction) (in furfural, 293.15 K): 7.5e-05 | solubility (mole fraction) (in furfural, 303.15 K): 0.000127 | solubility (mole fraction) (in furfural, 313.15 K): 0.000197 | solubility (mole fraction) (in furfural, 323.15 K): 0.000349 | solubility (mole fraction) (in furfural, 333.15 K): 0.000563 | solubility (mole fraction) [1]: 0.000822 | solubility (mole fraction) [2]: 0.00154 | solubility (mole fraction) [3]: 0.00258 | solubility (mole fraction) [4]: 0.00412 | solubility (mole fraction) [5]: 0.00604 | solubility (mole fraction) [6]: 0.00978 | solubility (mole fraction) (in methyl acetate, 283.15 K): 7.59e-05 | solubility (mole fraction) (in methyl acetate, 293.15 K): 0.000128 | solubility (mole fraction) (in methyl acetate, 303.15 K): 0.000232 | solubility (mole fraction) (in methyl acetate, 313.15 K): 0.000489 | solubility (mole fraction) (in methyl acetate, 323.15 K): 0.000811 | solubility (mole fraction) (in n-butanol, 283.15 K): 0.00219 | solubility (mole fraction) (in n-butanol, 293.15 K): 0.00245 | solubility (mole fraction) (in n-butanol, 303.15 K): 0.0027 | solubility (mole fraction) (in n-butanol, 313.15 K): 0.00296 | solubility (mole fraction) (in n-butanol, 323.15 K): 0.00337 | solubility (mole fraction) (in n-butanol, 333.15 K): 0.00389 | solubility (mole fraction) (in n-butyl acetate, 283.15 K): 0.000224 | solubility (mole fraction) (in n-butyl acetate, 293.15 K): 0.000284 | solubility (mole fraction) (in n-butyl acetate, 303.15 K): 0.000378 | solubility (mole fraction) (in n-butyl acetate, 313.15 K): 0.000492 | solubility (mole fraction) (in n-butyl acetate, 323.15 K): 0.000613 | solubility (mole fraction) (in n-butyl acetate, 333.15 K): 0.000765 | solubility (mole fraction) (in n-hexanol, 283.15 K): 0.0156 | solubility (mole fraction) (in n-hexanol, 293.15 K): 0.0166 | solubility (mole fraction) (in n-hexanol, 303.15 K): 0.0182 | solubility (mole fraction) (in n-hexanol, 313.15 K): 0.0202 | solubility (mole fraction) (in n-hexanol, 323.15 K): 0.0223 | solubility (mole fraction) (in n-hexanol, 333.15 K): 0.0236 | solubility (mole fraction) (in n-octanol, 283.15 K): 0.0154 | solubility (mole fraction) (in n-octanol, 293.15 K): 0.0171 | solubility (mole fraction) (in n-octanol, 303.15 K): 0.0183 | solubility (mole fraction) (in n-octanol, 313.15 K): 0.0201 | solubility (mole fraction) (in n-octanol, 323.15 K): 0.0222 | solubility (mole fraction) (in n-octanol, 333.15 K): 0.0242

C[C@H](CCC(=O)O)[C@H]1CC[C@H]2[C@@H]3CC[C@@H]4C[C@H](O)CC[C@]4(C)[C@H]3C[C@H](O)[C@]12C
solubility (mole fraction) (in 2-pentanone, 283.15 K): 0.000911 | solubility (mole fraction) (in 2-pentanone, 293.15 K): 0.00145 | solubility (mole fraction) (in 2-pentanone, 303.15 K): 0.00198 | solubility (mole fraction) (in 2-pentanone, 313.15 K): 0.00286 | solubility (mole fraction) (in 2-pentanone, 323.15 K): 0.00378 | solubility (mole fraction) (in 2-pentanone, 333.15 K): 0.0049 | solubility (mole fraction) (in cyclohexanone, 283.15 K): 0.00147 | solubility (mole fraction) (in cyclohexanone, 293.15 K): 0.00214 | solubility (mole fraction) (in cyclohexanone, 303.15 K): 0.00302 | solubility (mole fraction) (in cyclohexanone, 313.15 K): 0.00416 | solubility (mole fraction) (in cyclohexanone, 323.15 K): 0.00567 | solubility (mole fraction) (in cyclohexanone, 333.15 K): 0.00744 | solubility (mole fraction) (in ethyl acetate, 283.15 K): 0.000187 | solubility (mole fraction) (in ethyl acetate, 293.15 K): 0.000304 | solubility (mole fraction) (in ethyl acetate, 303.15 K): 0.000448 | solubility (mole fraction) (in ethyl acetate, 313.15 K): 0.000771 | solubility (mole fraction) (in ethyl acetate, 323.15 K): 0.0011 | solubility (mole fraction) (in ethyl acetate, 333.15 K): 0.00147 | solubility (mole fraction) (in furfural, 283.15 K): 0.000227 | solubility (mole fraction) (in furfural, 293.15 K): 0.000293 | solubility (mole fraction) (in furfural, 303.15 K): 0.000478 | solubility (mole fraction) (in furfural, 313.15 K): 0.000599 | solubility (mole fraction) (in furfural, 323.15 K): 0.000913 | solubility (mole fraction) (in furfural, 333.15 K): 0.0014 | solubility (mole fraction) [1]: 0.000904 | solubility (mole fraction) [2]: 0.00147 | solubility (mole fraction) [3]: 0.00217 | solubility (mole fraction) [4]: 0.00304 | solubility (mole fraction) [5]: 0.00509 | solubility (mole fraction) [6]: 0.00757 | solubility (mole fraction) (in methyl acetate, 283.15 K): 0.000224 | solubility (mole fraction) (in methyl acetate, 293.15 K): 0.000382 | solubility (mole fraction) (in methyl acetate, 303.15 K): 0.00071 | solubility (mole fraction) (in methyl acetate, 313.15 K): 0.00107 | solubility (mole fraction) (in methyl acetate, 323.15 K): 0.0016 | solubility (mole fraction) (in n-butanol, 283.15 K): 0.00134 | solubility (mole fraction) (in n-butanol, 293.15 K): 0.00159 | solubility (mole fraction) (in n-butanol, 303.15 K): 0.00189 | solubility (mole fraction) (in n-butanol, 313.15 K): 0.00246 | solubility (mole fraction) (in n-butanol, 323.15 K): 0.00275 | solubility (mole fraction) (in n-butanol, 333.15 K): 0.00315 | solubility (mole fraction) (in n-butyl acetate, 283.15 K): 0.000222 | solubility (mole fraction) (in n-butyl acetate, 293.15 K): 0.000275 | solubility (mole fraction) (in n-butyl acetate, 303.15 K): 0.000415 | solubility (mole fraction) (in n-butyl acetate, 313.15 K): 0.000609 | solubility (mole fraction) (in n-butyl acetate, 323.15 K): 0.000875 | solubility (mole fraction) (in n-butyl acetate, 333.15 K): 0.00127 | solubility (mole fraction) (in n-hexanol, 283.15 K): 0.00773 | solubility (mole fraction) (in n-hexanol, 293.15 K): 0.00902 | solubility (mole fraction) (in n-hexanol, 303.15 K): 0.0102 | solubility (mole fraction) (in n-hexanol, 313.15 K): 0.0125 | solubility (mole fraction) (in n-hexanol, 323.15 K): 0.0153 | solubility (mole fraction) (in n-hexanol, 333.15 K): 0.0174 | solubility (mole fraction) (in n-octanol, 283.15 K): 0.00898 | solubility (mole fraction) (in n-octanol, 293.15 K): 0.0116 | solubility (mole fraction) (in n-octanol, 303.15 K): 0.0135 | solubility (mole fraction) (in n-octanol, 313.15 K): 0.016 | solubility (mole fraction) (in n-octanol, 323.15 K): 0.0192 | solubility (mole fraction) (in n-octanol, 333.15 K): 0.0232
